Data on 3 molecules can be found in patent US20240335462A1, “SULFUR/PHOSPHORUS-CONTAINING ARYL COMPOUND AND APPLICATION THEREOF” (MEDSHINE DISCOVERY INC., priority 2021, published 2024).

One experiment relates to Ba/F3-TEL-TYK2 cells. Nature of the experiment: Proliferation of Ba/F3-TEL-TYK2 cells (CellTiter-Glo). Type of experiment: cell-based. As to conditions: 72 hours, read-out: Half maximal inhibitory concentration IC50 for cells Ba/F3-TEL-TYK2. The text has this:
(§1) Adenosine triphosphate (ATP) serves as a universal energy carrier in various life processes, representing the smallest unit of energy storage and transfer. The CellTiter-Glo™ Luminescent Cell Viability Assay Kit utilizes luciferase as a detection agent. During the luminescent process, luciferase requires the participation of ATP. By adding CellTiter-Glo™ reagent to the cell culture medium and measuring the luminescence, the light signal was directly proportional to the amount of ATP in the system, and ATP was positively correlated with the number of viable cells. Therefore, cell proliferation can be detected by measuring ATP content using the CellTiter-Glo kit. In this test, the cell lines used were Ba/F3-FL-TYK2-E957D and Ba/F3-TEL-TYK2. Ba/F3-FL-TYK2-E957D cells can stably express the exogenously introduced human TYK2-E957D gene, and the TYK2-E957D gene sequence contains both JH1 and JH2 domains. On the other hand, Ba/F3-TEL-TYK2 cells can stably express the exogenously introduced human TEL-TYK2 gene, and the TEL-TYK2 gene sequence contains only the JH1 domain of TYK2.
(§2) The cell lines were cultured in an incubator at 37° C. with 5% CO2. Regular passaging was performed, and cells in the logarithmic growth phase were selected for plating.
(§3) • a) The test compounds were prepared into a 10 mM solution with DMSO, and then diluted to 0.3 or 1 mM with DMSO. • b) Preparation of 1000× compound storage plate (tube): The compounds were 3-fold serially diluted from the highest concentration to the lowest concentration, creating 9 different concentrations. • c) Preparation of 20× compound working solution: 49 μL of cell culture medium was added to a flat-bottomed 96-well transparent drug plate. From the 1000× compound storage plate, 1 μL of the compound was pipetted into the cell culture medium in the 96-well transparent drug plate. In the solvent control, 1 μL of DMSO was added. After the compound or DMSO was added, the mixture was homogenized using a multi-channel pipette.
(§4) • a) Cells were stained with trypan blue and viable cells were counted to ensure a cell viability of 90% or more. • b) 95 μL of cell suspension (2000 cells/well) was added to each well of the compound assay cell plate, and cell-free culture medium containing 0.1% DMSO was added to the Min control wells. • c) Administration in the compound assay cell plate: 5 μL of 20× compound working solution was added to the cell culture plate. 5 μL of DMSO-cell culture medium mixture was added to the Max control wells. The final concentration of DMSO was 0.1%. • d) The culture plate was then incubated in an incubator at 37° C. with 5% CO2 for 72 hours.
(§5) The following steps were conducted in accordance with the instructions of the Promega CellTiter-Glo Luminescent Cell Viability Assay Kit (Promega-G7573). • a) CellTiter-Glo buffer was thawed and brought to room temperature. • b) CellTiter-Glo substrate was also brought to room temperature. • c) CellTiter-Glo buffer was added to a bottle of CellTiter-Glo substrate to dissolve the substrate, thereby preparing CellTiter-Glo working solution. • d) The mixture was slowly vortexed and shaken to be fully dissolved. • e) The cell culture plate was removed and allowed to equilibrate to room temperature for 10 minutes. • f) 50 μL (equal to half the volume of cell culture medium in each well) of CellTiter-Glo working solution was added to each well. • g) The culture plate was shaken on an orbital shaker for 2 minutes to induce cell lysis. • h) The plate was then left at room temperature for 10 minutes to stabilize the luminescent signal. • i) The luminescent signal was detected using a SpectraMax Paradigm plate reader.
(§6) Data analysis was conducted using GraphPad Prism 5.0 software. Nonlinear S-curve regression was employed to fit the data and generate dose-response curves. From these curves, the IC50 values were calculated.
(In general: In ATP-based viability assays light output follows the ATP content of the culture.)

Experiment [1] concerns TYK2 signaling pathway (IFN-α/pSTAT1). As to the kind of experiment: IFN-α-induced STAT1 phosphorylation in mouse whole blood. The following applies: CD3+ cells. Format: cell-based. As for the experimental part: The purpose of this experiment was to detect the inhibitory effect of the compound on the JAK-STAT signaling pathway activated by IFN-α in mouse whole blood. Fresh mouse whole blood was collected and placed in a 96-well plate. The test compound was added and incubated for 1 hour, followed by stimulation with IFN-α. The corresponding STAT1 phosphorylation level in the CD3^+ cell population was analyzed using flow cytometer by means of surface antibody staining and intracellular phosphorylated antibody staining. The IFN-α-induced STAT1 phosphorylation in mouse whole blood is dependent on TYK2 activity. By detecting the inhibitory activity of the compound on downstream […] phosphorylation, the half maximal inhibitory concentration (IC50) of the compound on TYK2 signaling pathway activity can be determined.
• a) The compound was prepared into a 10 mM solution with dimethyl sulfoxide (DMSO), and diluted in DMSO to a solution with various concentrations, 500 times the final concentration. • b) 5 μL of the diluted compound was transferred to 120 μL of phosphate buffered saline (PBS) containing 0.1% bovine serum albumin (BSA). • c) Positive and negative control groups were set up, with both finally containing 0.2% DMSO.
• a) 67.5 μL of mouse whole blood was added to each well of a 96-well cell culture plate. • b) 3.5 μL of the diluted compound was added thereto and mixed thoroughly. • c) The plate was incubated in a 37° C. incubator for 60 minutes. • d) Mouse interferon recombinant protein was diluted 125-fold in PBS containing 0.1% BSA, and anti-mouse CD3 antibody was diluted 5-fold in PBS containing 0.1% BSA. 5 μL of diluted anti-mouse CD3 antibody and 4 μL of diluted mouse interferon recombinant protein were added to each well. • e) The plate was incubated in a 37° C. incubator for 30 minutes. • f) All cells were transferred to a 96-well deep well plate, and 1 mL of 37° C. pre-warmed 1× lysis/fixation buffer was added thereto. • g) The cells were incubated in the dark at 37° C. for 10 minutes. • h) After centrifugation at 600 g for 5 minutes, the supernatant was discarded, and the cells were washed twice with 1 mL of PBS by centrifugation. • i) 0.4 mL per well of permeabilization buffer was added to the cell pellet and mixed thoroughly. The cells were incubated in the dark at 4° C. for 30 minutes. • j) After centrifugation at 600 g for 5 minutes, the supernatant was discarded, and the cells were washed twice with 1 mL of flow cytometry staining buffer (PBS+0.2% BSA+1 mM EDTA) by centrifugation. • k) Anti-STAT1 antibody was diluted 65-fold in flow cytometry staining buffer, and added to cell-containing wells at 100 μL per well and mixed thoroughly. • l) The cells were incubated at room temperature for 40 minutes. • m) 1 mL per well of flow cytometry staining buffer was added, and the cells were washed twice by centrifugation at 600 g for 5 minutes. • n) The supernatant was discarded, and the cell pellet was resuspended in 300 μL of flow cytometry staining buffer. • o) The samples were loaded for analysis using the Beckman CytoFlex flow cytometer.
Data were analyzed using FlowJo software. Curve fitting was performed and the IC50 was calculated using GraphPad Prism 8 software.

Experiment [2] concerns the target Ba/F3-FL-TYK2-E957D cells (Homo sapiens, UniProt P29597, E957D, cells depend on it). As to the kind of experiment: Proliferation of Ba/F3-FL-TYK2-E957D cells (CellTiter-Glo). Type of experiment: cell-based, mouse. As to conditions: 72 hours, read-out: Half maximal inhibitory concentration IC50 for cells Ba/F3-FL-TYK2-E957D.
Excerpt: as §1, §2, §3, §4, §5, §6

Experiment [3] deals with JH2 pseudokinase domain of TYK2. The following applies: background statement; cited from earlier work.

Sequence of Ba/F3-FL-TYK2-E957D cells (P29597 whole entry E957D): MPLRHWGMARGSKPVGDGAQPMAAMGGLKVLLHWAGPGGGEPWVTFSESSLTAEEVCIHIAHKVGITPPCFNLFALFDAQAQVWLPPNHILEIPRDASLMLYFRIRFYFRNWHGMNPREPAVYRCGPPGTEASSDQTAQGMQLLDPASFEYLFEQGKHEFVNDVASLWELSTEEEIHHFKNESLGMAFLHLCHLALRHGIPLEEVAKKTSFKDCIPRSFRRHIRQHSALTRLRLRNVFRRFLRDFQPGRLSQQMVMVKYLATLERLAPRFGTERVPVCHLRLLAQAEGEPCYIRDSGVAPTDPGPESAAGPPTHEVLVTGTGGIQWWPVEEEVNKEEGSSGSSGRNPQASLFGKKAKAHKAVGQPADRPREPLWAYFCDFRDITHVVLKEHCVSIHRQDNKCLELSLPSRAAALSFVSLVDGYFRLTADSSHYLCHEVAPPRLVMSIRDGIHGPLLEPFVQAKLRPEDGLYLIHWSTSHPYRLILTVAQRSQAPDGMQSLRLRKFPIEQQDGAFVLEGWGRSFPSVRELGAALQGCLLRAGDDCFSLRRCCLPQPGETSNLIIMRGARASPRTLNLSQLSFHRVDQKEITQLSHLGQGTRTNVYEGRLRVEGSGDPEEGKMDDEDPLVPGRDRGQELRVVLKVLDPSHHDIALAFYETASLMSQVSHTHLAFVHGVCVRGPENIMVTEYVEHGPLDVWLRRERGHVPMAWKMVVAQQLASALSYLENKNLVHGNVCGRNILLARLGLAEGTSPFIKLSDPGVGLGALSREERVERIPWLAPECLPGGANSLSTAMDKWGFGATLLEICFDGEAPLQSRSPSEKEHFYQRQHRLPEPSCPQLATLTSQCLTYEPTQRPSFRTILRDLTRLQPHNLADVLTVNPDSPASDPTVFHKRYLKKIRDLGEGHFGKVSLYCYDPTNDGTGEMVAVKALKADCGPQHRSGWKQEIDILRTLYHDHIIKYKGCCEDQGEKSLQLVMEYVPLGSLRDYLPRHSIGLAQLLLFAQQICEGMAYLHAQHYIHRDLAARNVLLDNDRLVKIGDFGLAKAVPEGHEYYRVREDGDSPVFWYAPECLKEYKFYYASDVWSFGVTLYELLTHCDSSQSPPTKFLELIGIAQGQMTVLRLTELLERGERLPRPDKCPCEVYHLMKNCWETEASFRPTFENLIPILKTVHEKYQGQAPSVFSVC

Consider `COc1c(Nc2cc(NC(=O)C3CC3)ncc2C(N)=O)cccc1-c1ccc(S(=O)(=O)C(C)C)cn1` [Trifluoroacetate of WX-034], for which the IC50 in the experiment on Ba/F3-TEL-TYK2 cells was above 10000 nM; in experiment [1], 93.2 nM. The GI50 in experiment [2] is 0.1 nM.

On to `[2H]C([2H])([2H])NC(=O)c1nnc(NC(=O)C2CC2)cc1Nc1cccc(-c2ncn(C)n2)c1OC` [BMS-986165], for which, in experiment [3], the kinase selectivity is reported as above 1000 fold.

Take `COc1c(Nc2cc(NC(=O)C3CC3)ncc2C(N)=O)cccc1-c1ncc(S(=O)(=O)C(C)C)cn1` [WX-033]: the IC50 in the experiment with Ba/F3-TEL-TYK2 cells was above 10000 nM; in experiment [1], 316 nM. Also, the GI50 in experiment [2] was found to be 0.1 nM.
